In US20190175783A1, “High-Throughput Method for Detecting Tooth Stain Prevention and Removal” (Johnson & Johnson Consumer Inc., priority 2017, published 2019):

Tests used:
[1] = Stain prevention test (450 nm absorbance of stain displaced after pre-treatment)
Protocol: Stain Prevention Test Procedure: • 1. Form a pellicle coat on hydroxyapatite (HAp) particles by mixing the particles with saliva and incubating the mixture. • 2. Transfer HAp particle/saliva suspension into a large batch filter container. • 3. Filter the saliva supernatant to waste. • 4. Treat pellicle coated HAp particles, sending the supernatant to waste. • 5. Filter the treated, pellicle coated HAp particles, sending the supernatant to waste. • 6. Stain the pre-treated pellicle coated HAp particles by adding a stain solution directly to the filter container and incubate. • 7. Wash any loosely bound stain off the pre-treated, pellicle coated HAp particles. • 8. Elute the stain from the stained, pre-treated, pellicle coated HAp particles 5% PPi solution. • 9. Filter and collect supernatant. • 10. Make UV-Vis absorbance measurements on collected supernatant.
A mass of 1 gram of hydroxyapatite particles (Bio-Rad, Hercules, Calif., catalogue 1570020) was suspended in artificial saliva at a concentration of 10 milligram/100 microliter and allowed to incubate for 15 minutes at 37° C. to form a pellicle coating. A volume of 100 microliter per sample was aliquoted into respective filter vesicle (96-well filter plate or filter tube) and the supernatant was filtered out from the particles (n=3 per sample treatment). The treatment solutions were prepared within a range of 0% to 2% polyphosphate solution in water. The stock 2% w/v solution was serial diluted 1:1 in water to achieve treatment concentrations of polyphosphates of 1%, 0.5%, 0.25%, 0.125%, 0.0625%, and 0.03125% w/v. The 0% solution was a water control. The pellicle coated hydroxyapatite particles were exposed to 200 microliter of treatment solution of polyphosphate for at least 1 minute at room temperature with agitation (120 rpm). The treatment was removed by filtration and the particles were exposed to 100 microliter of a 10% instant coffee stain solution and incubated at 37° C. for 30 minutes. The coffee was removed by filtration and the particles were washed of any loosely bound stain. The residual stain on the particles was displaced with 200 microliter of an alkaline 5% pyrophosphate solution by incubating at room temperature for 10 minutes. The displaced stain was collected in a 96-well plate and absorbance measurements were made (Tecan, Infinite M200 Pro) between 230 and 1000 nm with a 10 nm step increase between measurements. The absorbance at 450 nm was used as a measure of stain prevention, with the lower absorbance values indicating more stain prevented from attaching to hydroxyapatite particle.

[2] = Stain removal test (450 nm absorbance of stain removed)
Protocol: • 1. Form a pellicle coat on hydroxyapatite (HAp) particles by mixing the particles with saliva and incubating the mixture. • 2. Transfer HAp particle/saliva suspension into a large batch filter container. • 3. Filter the saliva supernatant to waste. • 4. Stain particles by adding a stain solution directly to the filter container and incubate. • 5. Transfer stained, pellicle coated HAp particle suspension into filter container. • 6. Filter the stained, pellicle coated HAp particles, sending the supernatant to waste. • 7. Re-suspend stained, pellicle coated HAp particles in water, and optionally store for future testing. • 8. Prepare stained, pellicle coated HAp particles for treatment. • 9. Treat stained HAp particles. • 10. Filter and collect the supernatant. • 11. Make UV-Vis absorbance measurements on collected supernatant.
A mass of one gram of hydroxyapatite powder (Bio-Rad, Hercules, Calif., catalogue 1570020) was suspended in artificial saliva (Northeast Laboratories, Winslow, Me., catalogue no. T0300) at a concentration of 10 milligram/100 microliter and allowed to incubate for 15 minutes at 37° C. to form a pellicle coating. The supernatant was filtered out from the particles. The particles were re-suspended in 10% instant coffee stain solution at a concentration of 10 milligram/100 microliter and incubated at 37° C. for 30 minutes. The coffee solution was removed by filtration and the particles were washed of any loosely bound stain. The now coffee stained, pellicle coated hydroxyapatite particles were suspended in water at a concentration of 10 milligram/100 microliter. A volume of 100 microliter per sample was aliquoted into respective filter vesicle (96-well filter plate or filter tube) and the supernatant was filtered out from the particles (n=3 per sample). The treatment solutions were prepared within a range of 0% to 2% polyphosphate solution in water. The stock 2% w/v solution was serial diluted 1:1 in water to achieve treatment concentrations of polyphosphates of 1%, 0.5%, 0.25%, 0.125%, 0.0625%, and 0.03125% w/v. The 0% solution was a water control. After, the stained hydroxyapatite particles were exposed to 200 microliter of respective treatment for 1 or 2 minutes at room temperature with agitation (120 rpm). The polyphosphate treatment solutions ranged from 0.031% to 2% w/v. A negative control, using distilled water as the treatment solution, was tested as a comparison to the polyphosphate treatment solutions. […] Subsequently, absorbance measurements (Tecan, Infinite M200 Pro) were made between 230 and 1000 nm with a 10 nm step increase between measurements. The absorbance at 450 nm was used as a measure of stain removed, where higher absorbance values indicated more stain displaced from the hydroxyapatite particles.

[3] = concentration from 0.500% to 2.00%
[4] = concentration increased from 0.031% to 0.500%

polyphosphate [polyphosphate solutions]
stain prevention, effect of pre-treatment time ([1]; 1-, 2- and 10-minute stain prevention pre-treatments): no significant difference | level of stain removal (450 nm absorbance of displaced stain) [1, 3]: remained constant | stain prevention (450 nm absorbance) [1, 4]: stain prevention increased | 450 nm absorbance values of stain displaced as a function of concentration ([1]; polyphosphate 0.031% to 2% w/v in water, 1-, 2- and 10-minute pre-treatments, 10% instant coffee stain, FIG. 2): clear dose response | stain removal, effect of treatment time ([2]; 1 versus 2 minute treatments): no significant difference | level of stain removal (450 nm absorbance) [2, 3]: remained constant | stain removal (450 nm absorbance) [2, 4]: stain removal increased | 450 nm absorbance values of stain removed as a function of concentration ([2]; polyphosphate 0.031% to 2% w/v in water, 1- and 2-minute treatments, 10% instant coffee stain, FIG. 1): clear dose response
